Entries after “also recorded” stand apart in the source; their conditions may differ.
How the values were obtained:
angiogenesis = assay: Matrigel deposit implant test for angiogenic activity (acceleration or inhibition), FGF1-induced; assay type: in vivo, mice; parameters: key to top score seen in Matrigel deposits: no + sign would yield a value of 0, as in A in FIG. 13; B in FIG. 13 would yield a score of +++; ++++: 0 to 4 plus (+) scale; conditions: for top score seen in Matrigel deposits: 0 to 4 plus (+) scale, only top level scores of the experiment
Excerpt: Matrigel deposits were surgically implanted on both sides of 4 mice per treatment yielding a possible 8 samples per treatment. Matrigel is a polymeric substance that appears to be relatively inert in animals and it can serve as a matrix that allows experimentation in vivo on many different difficult-to-study-processes. Prior to implantation, the Matrigel was allowed to imbibe fibroblast growth factor 1 (FGF1). This protein is a powerful inducer of angiogenesis and its presence guarantees that sufficient activity will be observed within the allotted time period of the experiment. Therefore, any inhibition of angiogenesis is likely to be a real phenomenon as the experiment has been set to heavily favor the angiogenic process. Angiogenesis occurs by day 14 and beginning Day 1 (Day 0=day of implantation), mice were injected IP daily with 20 μg of peptide in 100 μl of normal saline. The animals were sacrificed on Day 14, and each Matrigel deposit divided longitudinally and fixed in 10% buffered formalin. One of the halves of each Matrigel deposit was then sectioned. Read-out for this experiment was via histology, with semi-quantitative/qualitative counting of migration of cells and their subsequent assembly of lumenal structures within the Matrigel. This method allows us to observe the full physiologic spectrum of effects, and was useful in delineating trends. […] In FIG. 13, A represents what a section of a Matrigel gel deposit looks like under the microscope soon after surgical implantation. The sample in B is derived from the control at the conclusion of the experiment. Intense activity is present with numerous cells attaching to the surface of the Matrigel. Cells begin to penetrate the deposit and organize into discrete structures that coalesce to form the beginning of tubes twisting and branching in many directions. These venules eventually connect with the system carrying blood and it is possible to see red cells and lymphocytes within them. This process is called “arborization”, derived from the fact that the angiogenic process most closely resembles the growth of roots and branches of trees. All but two of the peptide treatments looked, more or less, like B (all the peptides of Table 1 were tested). In C, a typical sample from the peptide C-1 (SEQ ID NO: 24) treatment is shown. […] Consequently, there were far fewer cells and cellular structures inside of the Matrigel. […] There were large regions of Matrigel that had no visibly associated structures and few single cells, including on the periphery, while other regions had some limited activity.
This system ranks each sample using a 0 to 4 plus (+) scale. Thus, B in FIG. 13 would yield a score of +++ while no + sign would yield a value of 0, as in A in FIG. 13. In Table 3 the data is modified to a numerical form and plotted averages are shown.

tumors = assay: In vivo anti-tumor activity of injected peptide in animal tumor models
arthritis = assay: Treatment of a patient with arthritis (x-ray of ankle joints); assay type: in vivo; conditions: 10 mg subcutaneous once a week for one month, then once a month
Experimental: A patient with arthritis was treated by subcutaneous injection of 10 mg once a week for one month and then once a month for maintenance doses. A visible indication of arthritis is calcification of joints.

[1] = system: Feline Immunodeficiency virus FIV; assay: Peptide treatment of a lion infected with FIV (CD4+/CD8+ cell counts); assay type: in vivo; conditions: weekly 70 mg I.M injections
Excerpt: Nasty is a male lion in North Carolina Zoological Park. He was diagnosed to suffer Feline Immunodeficiency virus FIV. FIV attacks the immune system of cats, much like the human immunodeficiency virus (HIV) attacks the immune system of human beings. FIV infects many cell types in its host, including CD4+ and CD8+T lymphocytes, B lymphocytes, and macrophages. FIV eventually leads to debilitation of the immune system in its feline hosts by the infection and exhaustion of T-helper (CD4+) cells.
Nasty was treated weekly with 70 mg I.M injections of JC15-10N.

[2] = mice, 20 μg peptide IP daily, Day 14 histology

For IVRRADRAAVPIVNLKDELL [C-1], the “angiogenic / anti-angiogenic activity in Matrigel deposits (in words)” value (“angiogenic / anti-angiogenic activity” below) (angiogenesis; [2]) was “far fewer cellular associations; also recorded: possess anti-angiogenic activity”.
With FAKKFAKKFKKFAKKFAK [JC15-18N] the “angiogenic / anti-angiogenic activity” value (angiogenesis; [2]) was “levels of activity higher than the control; also recorded: cannot exert an anti-angiogenic effect”.
KKFKKFAKKFAKFAF [JC15-15C] was tested, and the “top score seen in Matrigel deposits” value (angiogenesis) was “++++” and the “angiogenic / anti-angiogenic activity” value (angiogenesis; [2]) was “levels of activity higher than the control; also recorded: cannot exert an anti-angiogenic effect”.
For FAKKFAKKFKKF [JC15-12N], the “top score seen in Matrigel deposits” value (angiogenesis) was “++++” and the “angiogenic / anti-angiogenic activity” value (angiogenesis; [2]) was “levels of activity higher than the control; also recorded: cannot exert an anti-angiogenic effect; also recorded: does not inhibit angiogenesis”.
For FAKKFAKKFKKFAKKFAKFAFAF [JC15], the “% Diff.” value (angiogenesis; difference of mean score from Control (2.50)) was 4.00%, the “angiogenic activity score, Mean” value (angiogenesis; mean of samples, mice, 20 μg peptide IP daily, Day 14, 0 to 4 plus scale) was 2.60 and the “angiogenic / anti-angiogenic activity” value (angiogenesis; [2]) was “closer to the control; also recorded: cannot exert an anti-angiogenic effect”. The “angiogenic activity score, Sample 1” value (angiogenesis; mice, FGF1-imbibed Matrigel, 20 μg peptide IP daily, Day 14 histology, 0 to 4 plus scale, sample 1) was 3, the “angiogenic activity score, Sample 2” value (angiogenesis; mice, FGF1-imbibed Matrigel, 20 μg peptide IP daily, Day 14 histology, 0 to 4 plus scale, sample 2) was 2 and the “angiogenic activity score, Sample 3” value (angiogenesis; mice, FGF1-imbibed Matrigel, 20 μg peptide IP daily, Day 14 histology, 0 to 4 plus scale, sample 3) was 3. For the same sequence, the “angiogenic activity score, Sample 4” value (angiogenesis; mice, FGF1-imbibed Matrigel, 20 μg peptide IP daily, Day 14 histology, 0 to 4 plus scale, sample 4) was 2, the “angiogenic activity score, Sample 5” value (angiogenesis; mice, FGF1-imbibed Matrigel, 20 μg peptide IP daily, Day 14 histology, 0 to 4 plus scale, sample 5) was 3 and the “effect on tumors, peptide injected directly into the tumor” value (tumors; a few injections over a period of several days) was “tumors are permanently eliminated”. The “effect on tumors, peptide injected in a site removed from the tumor” value (tumors; systemic activity, several animal tumor models, in some cases little activity) was “most of the tumors also disappeared”.
For FAKKFAKFAF [JC15-10C], the “angiogenic / anti-angiogenic activity” value (angiogenesis; [2]) was “inactive”.
For FAKKFAKKFK [JC15-10N], the “calcification of the ankle joints” value (arthritis) was “disappeared”, the “angiogenic / anti-angiogenic activity” value (angiogenesis; [2]) was “possesses anti-angiogenic activity” and the “absolute CD4+ cell counts” value [1] was “stabilized the CD4+ cell counts”. For the same sequence, the “absolute CD8+ cell counts” value [1] was “the cell counts began to rise”.

Source: US20140329753A1, “Angiogenic active lytic peptides” (priority 2013, published 2014)
